pIC50: −log10 of the molar value.

From ChEMBL document CHEMBL1145890, “Synthesis, characterization, and in vitro antitumor activity of osteotropic diam(m)ineplatinum(II) complexes bearing a N,N-bis(phosphonomethyl)glycine ligand” (J Med Chem, 2003) come the findings set out here.

This experiment has as its system CH1. The experiment is described as follows: Antiproliferative activity in human ovarian cancer cell line (CH1) using MTT assay. The experiment is classed as functional, cell-based. In general terms: Tetrazolium assays rely on reduction of a dye to a coloured formazan, in cell work by metabolically active cells.

With OXALIPLATIN, the pIC50 was 6.57.
For CARBOPLATIN the value was 5.60.

By pIC50 is commonly meant the negative decadic logarithm of the IC50, by convention in mol/L.
